Patent US6779468B1, “Method and pharmaceutical composition for iron delivery in hemodialysis and peritoneal dialysis patients” (priority 1997, dated 2004)
Values joined by “and” are separate entries in the source; they are usually repeats but may differ in a detail not shown here. Identical values can stand only once. “Also recorded” adds a separate entry of the source.

Columns and labels:
[1] = Phase I/II clinical study of dialysate iron in maintenance hemodialysis patients; assay type: in vivo, human; settings: for reticulocyte hemoglobin (Retic-Hgb): month 2
Method: All subjects in the study were receiving maintenance hemodialysis for end stage kidney failure, and requiring erythropoietin and intravenous iron to maintain hemoglobin in the 10-12 gm/dl range. After obtaining an informed consent, patients were enrolled and oral iron was discontinued. All patients received maintenance intravenous iron (50-100 mg every 1-2 weeks) during a 4 week long pre-treatment phase. The last two weeks of this pre-treatment period were used to establish the “Baseline” serum iron and hematological parameters. In the Treatment Phase, ten patients were dialyzed with iron containing dialysate (Dialysate-Fe group) for a period of 4 months. […] Eleven control patients (IV-Fe Group) continued to receive 50-200 mg iron intravenously every 1-2 weeks, for the entire study period of 6.5 months.
The initial doses were 50 mg elemental iron weekly.
Increased availability of iron to marrow cells may improve responsiveness to erythropoietin, thereby raising the hemoglobin and hematocrit. Hemoglobin and hematocrit were monitored every week, and in the event of improved erythropoiesis, the doses of erythropoietin were reduced by 10% every two weeks or as needed, to maintain a stable hemoglobin.
According to the National Kidney Foundation-Dialysis Outcomes Quality Initiative (NKF-DOQI) recommendations, most hemodialysis patients should be administered intravenous iron with every dialysis session or every 1-2 weeks (maintenance therapy). […] This was the basis why the control group was maintained on regular doses of intravenous iron, while oral iron was discontinued. This being the standard of care, the subjects on maintenance intravenous iron (IV-Fe Group) served as the control against the experimental group receiving dialysate iron therapy (Dialysate-Fe Group).
A random number generator was used to generate a list of 24 numbers. Odd and even numbers were assigned A or B designation respectively. A list of 23 patients was created based on the order in which consent was obtained for participation in the study. Patients were assigned to groups A or B based on their order in the list.
When a relative iron deficiency was suspected bolus doses of 100-200 mg iron were administered intravenously with each dialysis, over 1-5 consecutive dialysis sessions.
Based on the NKF-DOQI guidelines, patients in IV-Fe group were prescribed maintenance amount of intravenous iron from 25 to 100 mg/week. When a relative iron deficiency was suspected, bolus doses of 100-200 mg iron were administered intravenously with each dialysis, over 5-10 consecutive dialysis sessions.
Except for plotting of individual patient variables over time, the iron study data has been summarized prior to analysis. Descriptive analysis was performed. Most of the analysis presented here, uses the data averaged over four or six/seven week intervals. A four week interval corresponds to the length of time each dose level was used during the dose escalation phase of the study. […] (See Figures 4-21)
The baseline period, labeled month 0, included data for the four weeks immediately prior to the start of the intervention. (There was some data available for some or all the fifth week prior to the intervention, but data from this week is omitted from the formal data analysis.)
Weeks 1 to 4, when the dialysate dose of 2 μg/dl was employed, are labeled month 1, weeks 5 to 8 labeled month 2, weeks 9 to 12 labeled ‘month 3’, weeks 13 to 16 labeled month 4, weeks 17 to 20 labeled month 5, and weeks 21 to 26 (or 27) are labeled month 6.

[2] = literature reports; cited from earlier work
[3] = baseline, before treatment phase

Compound | serum ferritin (mean±S.D.) [1, 3] | total iron binding capacity (TIBC, mean±S.D.) [1, 3] | reticulocyte hemoglobin (Retic-Hgb) [1] | average weekly dose of intravenous iron ([1]; month 6) | serum ferritin (mean±S.D.) ([1]; month 6) | average weekly dose of intravenous iron ([1]; pretreatment period (month 0, baseline), all patients on maintenance intravenous iron, listed as IV-Fe) | hypocalcemia / toxic effects [2] | TIBC adjusted for the baseline values, versus IV-Fe group ([1]; at 6 months, p<0.05) | hematocrit cycling ([1]; dialysate route during every dialysis session) | patients requiring additional intravenous iron supplements ([1]; month 6) | maintenance of hemoglobin ([1]; over a period of 6 months) | patients in whom iron balance is maintained without supplemental oral or intravenous iron ([1]; over a period of 6 months) | reduction of requirements for intravenous iron ([1]; over a period of 6 months) | average weekly dose of intravenous iron ([1]; pretreatment period (month 0, baseline), all patients on maintenance intravenous iron) | requirement for intravenous iron ([1]; p≦0.002 with 8-12 μg/dl dialysate iron) | serum Fe and transferrin saturation (at 30 minutes of peritoneal dialysis, dialysate iron 500 μg/dl, day 21, P<0.03) | time for mean serum iron and transferrin saturation to increase into the normal range (iron deficient rabbits, dialysate iron 500 μg/dl, day 21) | duration of increase in serum iron and transferrin saturation (peritoneal dialysis for a total of 2 hours)
iron dextran [reference compound] | 261 ± 211 µg/L | 192.7 ± 48.1 µg/dL | 27.0 ± 1.0 pg | 56.2 mg | 261 ± 211 µg/L | 59.6 mg and 68.7 mg | – | – | – | – | – | – | – | – | – | – | – | –
O=P([O-])([O-])OP(=O)([O-])[O-].[Sn+2].[Sn+2] [stannous pyrophosphate] | – | – | – | – | – | – | hypocalcemia and immediate toxic effects | – | – | – | – | – | – | – | – | – | – | –
Ferric pyrophosphate | 154 ± 120 µg/L | 222.3 ± 43.8 µg/dL | 28.4 ± 0.9 pg | 8.9 mg | 154 ± 120 µg/L | – | – | significantly higher | abolishes hematocrit cycling | 2 out of the 10 | maintains hemoglobin without an increase in erythropoietin requirement | approximately 80% | about 80% | 68.7 mg | significantly reduced; also recorded: decline in intravenous iron requirement | significant increase | ≤ 30 min | sustained for the duration of the experiment
